Experimental data from patent US4469795A, “Radioassay for monosialoglycosphingolipid (GM1) ganglioside concentration” (priority 1981, dated 1984).

Tested on: iodotoxin binding to liver membranes
Parameters: species or system rat

Substance: cholera toxin
- inhibition of iodotoxin binding to liver membranes by the unlabelled enterotoxin: did not occur
- reversal of inhibition of iodotoxin binding to liver membranes: greater than 92%

Substance: monosialoglycosphingolipid GM1 ganglioside
- inhibition of liver membrane toxin binding: greater than 94%
- time until binding of iodotoxin to GM1 ganglioside is complete: thirty
